These results are taken from patent US10525024B2, “Methods for rescuing phenobarbital-resistance of seizures by ANA-12 or ANA-12 in combination with CLP290” (THE JOHNS HOPKINS UNIVERSITY, priority 2014, dated 2020).

Broadly, the half-life is the time needed for the level to fall by half in the phase considered.

Several values for one entry are separate records, joined by “and”; a condition that tells them apart may be missing. Equal entries are not always repeated. Where two headings read alike, the source gives them in different places.

For one data set, the system named is KCC2. In words: Western blot of KCC2 expression, ipsilateral normalized to contralateral hemisphere, post-ligation. The data set is classed as in vivo, mouse. The method, then:
Western blot at 3 h and 24 h post-ligation. All animals were anesthetized with chloral hydrate (90 mg/ml; IP) before being transcardially perfused. The whole brains of P7 and P10 pups were harvested at either 3 h or 24 h post-ligation, and were frozen as ipsilateral and contralateral hemisphere. The brains were stored in −80° C. until further use. Homogenized whole brain lysates were suspended in cell lysis buffer with 10% protease/phosphatase inhibitor cocktail. Total protein concentrations were quantified through Bradford Assay (Bio-Rad) at 570 nm wavelength, and the samples were diluted for 50 ug of protein at 20 ul of loading volume for gel electrophoresis.
Samples were run on 4-20% gradient 1.5 mm 15 wells SDS gels (Invitrogen) for 100-120 min with 130V, and were transferred onto nitrocellulose membranes for overnight wet-transfer for minimum of 18 hours at 30V. After the transfer, the nitrocellulose membranes underwent 1 h blocking step in odyssey buffer, before overnight incubation in primary antibodies: rabbit α-KCC2 (1:1000, Millipore; Cat. No. 07-432); rabbit α-NKCC1 (1:500, Millipore, Cat. No. AB3560P); mouse α-actin (1:10000, LI-COR Biosciences, Cat. No. 926-42214). On the next day, nitrocellulose membranes were washed with TBS containing tween detergent, and then were incubated in […] secondaries for 1 h (1:5000 for both goat α-mouse 680LT and goat α-rabbit 800CW, LI-COR Biosciences). Chemiluminescent protein bands were analyzed using the Odyssey infrared imaging system 2.1 (LI-COR Biosciences). The optical density of each protein sample was normalized to the actin bands run on each lane for internal control. The expression levels of the proteins of interest in ipsilateral hemispheres were normalized to the same in contralateral hemispheres for each pup. The human brain was recently shown to express two splice variants of NKCC1 (a and b) and the NKCC1 probe used in this study and all previous studies referenced here can only detect the NKCC1a isoform because the targeted epitope site of this probe overlaps with exon 21 that is spliced in the dominant isoform NKCC1b. A reliable pan-NKCC1 probe is not currently available.
A smaller sample of naïve age-matched controls (n=8, 4 each at P8 and P11, equal sexes) was run with the 24 h WB data (brains harvested at P8 and P11, i.e.; 24 h after P7 and P10 ligations). […] This pilot established that contralateral hemispheres were ideal controls for normalization of KCC2 and NKCC1 expression in ipsilateral injured hemispheres for this study similar to previously reported conclusions in another ischemia model.
(Immunoblotting shows a protein as a band on a membrane.)

In data set [1] the test system is CD1 pups with unilateral carotid ligation (ischemic seizures). The settings on record: for latency to the 1st-detected seizure: drug given IP immediately after ligation.
The conditions of data set [2]: adult mouse, 0.5 mg/kg IP, cited from earlier work.
Data set [3] concerns CD1 mice with permanent unilateral carotid-ligation (acute ischemic seizures). In words: Video-EEG seizure burden after carotid ligation at P7, P10, P12 with PB and adjunct BTN (Example 2). The data set is classed as in vivo, mouse. Conditions: for effect of adjunct BTN on PB-efficacy: BTN 0.1-0.2 mg/kg IP 2 h post-ligation; for reduction of seizure burden: PB 25 mg/kg IP 1 h after ligation.
Procedure: Experimental design. […] All surgery was performed under isoflurane general anesthesia, and all efforts were made to minimize suffering. All litters of CD1 mice were purchased from Charles River Laboratories Inc. (Wilmington, Mass.). Newly born litters of pups arrived at postnatal 3 or 4 days old, and were allowed to acclimate. […] Ninety two pups from 12 litters were included in the video-EEG study (n=48 male and n=44 female). The susceptibility to ischemic seizures was tested at 3 developmental ages i.e., 7, 10 and 12 days old CD1 pups (n=80 ligated and 12 shams). […] The pups underwent permanent ligation and sham surgeries followed by 3 h of EEG recording each, as described in methods (total pups=92 of which ligates P7=29, P10=24 and P12=27 and sham P7=5, P10=4 and P12=3; see Table 2). From the ligated group of pups (total n=80), the ligated-control pups also underwent 3 h EEG recordings to evaluate natural progression of ischemic seizure burden over the duration of treatment efficacy evaluated in this study (total pups n/n=26/80, P7=8, P10=9 and P12=9). […] Since the severity of stroke-injury and seizure varies between pups, the baseline EEG of each pup served as an important internal control. Additionally, since the exact time-point of onset for ischemia in human neonates is not known and may not be a single massive event, the 1 h of non-treatment also served as an important delay expected in the treatment of neonatal seizures that are detected hours after stroke in humans.
Surgical procedure for ischemic insult and electrode implantation. Animals were anesthetized with 2% isoflurane. The right common carotid artery was permanently double-ligated with 6-0 surgisilk and the outer skin closed with 6-0 monofilament nylon to induce ischemia (i.e.; ischemia was induced by unilateral common carotid ligation alone. Unlike other rat models commonly used for neonatal stroke, no global hypoxia is needed to induce acute ischemic seizures). Since the ligated carotid is not transected in our model, the intact pulsating carotid artery with silk ligatures can lead to reperfusion over time in this model. The constrictive efficacy (which drops cerebral perfusion to 40% or less) of the silk ligatures is known to diminish, due to the loss of their tensile strength in-vivo against the pulsating artery as a function of time. […] The animals were then implanted with three sub-dermal EEG electrodes (1 recording, 1 reference, and 1 ground) on the skull overlying the parietal cortex using bregma as a reference. Scalp wire electrodes made for sub-dermal use in humans (IVES EEG; Model # SWE-L25-MA, USA) were implanted, sub-dermally fixed with adhesive, in the pups. […] In this study, the recording and reference electrodes were implanted less than 1 cm apart. Pups were then allowed to recover from anesthesia in a 36° C. isothermal chamber for 3 h recording of video-EEG (FIG. 12). At the end of the recording session, the pups were returned to the dams after removal of the sub-dermal electrodes and application of local anesthetic medication.
In vivo synchronous video-EEG recording. […] Data acquisition was done using PAL-8400 software with synchronous video capture (Pinnacle Technology Inc.). […] The files were stored in .EDF format and scored in real time using the review and scoring software package.

A further data set has as its system HIE seizures. Conditions: neonates, cited from earlier work.
The conditions of data set [4]: cited from earlier work.
The next data set has as its system ischemic seizures. In words: CLP290 in the neonatal ischemic seizure model, 3 h EEG (Example 3). Conditions: 20 mg/kg, n=4, vs vehicle (HPCD).

Take `O=C(Nc1ccccc1C(=O)NC1CCCCNC1=O)c1cc2ccccc2s1` (stereo not drawn) [ANA12, N-[2-[[(Hexahydro-2-oxo-1H-azepin-3-yl)amino]carbonyl]phenyl] benzo[b]thiophene-2-carboxamide]: the “effect on post-ischemic degradation of KCC2 expression” value in the data set on KCC2 (3 h post-ischemia) was “underwent degradation of KCC2”; with KCC2 (P7 and P10, 24 h post-ischemia) it was “failed to prevent the post-ischemic KCC2 degradation”. Also, the “downregulation of KCC2 expression” value in the data set with KCC2 (P7, 3 h post-ischemia) was 15-20%. Moreover, the “KCC2 degradation compared to the contralateral hemisphere” value is given as 15-18% in the data set with KCC2 (P7, 24 h post-ischemia) and around 12% with KCC2 (P10, 24 h post-ischemia). The “latency to the 1st-detected seizure” value in data set [1] (P7) came to 202.3 ± 38.8 s; in data set [1] (P10), 245.8 ± 39.8 s. The “post-treatment mortality rate vs vehicle (Fisher's exact test)” value in data set [1] (P7 p=0.58, P10 p=1.00) is recorded as “did not show a statistical significance”. Further, the “anti-seizure effect on EEG seizure burden” value in data set [1] (P7 pups) and in data set [1] (P10 pups) was “did not have any anti-seizure effect” throughout. Also, the “age- and sex-dependent seizure susceptibility to ischemic seizures” value in data set [1] (P7 vs P10, baseline seizure burden) is reported as “not altered”. The brain concentration in data set [2] (0.5 h) is given as 400 nM; in data set [2] (6 h) it was 10 nM.
With `CCCCNc1cc(C(=O)O)cc(S(N)(=O)=O)c1Oc1ccccc1` [BTN, bumetanide], the “effect of adjunct BTN on PB-efficacy” value in data set [3] (P7) is given as “did not improve PB-efficacy”; in data set [3] (P10), “PB-induced seizure suppression was lost”; in data set [3] (P12), “failed to act as an effective adjuvant”. Further, the “anti-seizure effect on total time spent seizing on EEG” value in data set [3] (P7, PB 25 mg/kg at 1 h, BTN 0.1-0.2 mg/kg at 2 h post-ligation) is on record as “failed to have any significant anti-seizure effect”. Besides, in data set [3] (any age (P7, P10, P12)), the “electrographic seizure scores after follow-on BTN” value is listed as “did not add any significant therapeutic benefit”. The “adjunct anti-seizure effect of BTN given 1 h after PB” value in data set [1] (P10, ANA12+PB treated pups, BTN 0.1-0.2 mg/kg IP, 3rd h) is “significantly blunted PB-efficacy by increasing the seizure burden”. Further, the “efficacy for HIE seizures” value in the data set on HIE seizures (clinical trial terminated) is listed as “inefficacy”. Moreover, the safety finding result in the data set with HIE seizures is “ototoxicity”. In data set [4] (rodents), the half-life was < 30 min and ~30 min.
Turning to `O=C1N=C(N2CCCCN2)S/C1=C\c1ccc(F)cc1OC(=O)N1CCCC1` [CLP290], the anti-seizure activity alone entry in the data set on ischemic seizures is listed as “can act independently as an anti-seizure agent”.
Take `CCC1(c2ccccc2)C(=O)NC(=O)NC1=O` [PB, phenobarbital]: the figures for the “reduction of seizure burden” value in data set [3] (P10) and in data set [3] (P12) were 61% and 64%, respectively. For the same molecule, the “percent PB seizure suppression over baseline” value in data set [1] (P10 pups, ANA12 2.5 mg/kg IP after ligation (or none), PB 25 mg/kg IP at 1 h, 2nd h vs baseline EEG) is on record as 68%. In addition, the half-life in data set [4] (immature rodents) was around 900 min.
